According to ChEMBL document CHEMBL4507265 (2021):

Columns and labels:
[1] = target: Serine/threonine-protein kinase TBK1 (Homo sapiens) (UniProt Q9UHD2); conditions: Compound concentration 1000.0 nM
[2] = test system: Receptor-type tyrosine-protein kinase FLT3 (Homo sapiens), P36888 [D835H]; conditions: Compound concentration 1000.0 nM
[3] = target: Cyclin-dependent kinase 3 (Homo sapiens) (UniProt Q00526); conditions: Compound concentration 1000.0 nM
[4] = target: Serine/threonine-protein kinase PAK 6 (Homo sapiens) (UniProt Q9NQU5); conditions: Compound concentration 1000.0 nM
[5] = target: Serine/threonine-protein kinase TAO3 (Homo sapiens) (UniProt Q9H2K8); conditions: Compound concentration 1000.0 nM
[6] = target: Platelet-derived growth factor receptor beta (Homo sapiens) (UniProt P09619); conditions: Compound concentration 1000.0 nM
[7] = test system: Tyrosine-protein kinase ABL1 (Homo sapiens), P00519 [F317I]; conditions: Compound concentration 1000.0 nM
[8] = target: Histamine H1 receptor (Homo sapiens) (UniProt P35367); conditions: Compound concentration 10.0 uM
[9] = target: Dual specificity mitogen-activated protein kinase kinase 6 (Homo sapiens) (UniProt P52564); conditions: Compound concentration 1000.0 nM
[10] = test system: Hepatocyte growth factor receptor (Homo sapiens), P08581 [Y1235D]; conditions: Compound concentration 1000.0 nM
[11] = target: Serine/threonine-protein kinase WNK3 (Homo sapiens) (UniProt Q9BYP7); conditions: Compound concentration 1000.0 nM
[12] = target: Serine/threonine-protein kinase NIM1 (Homo sapiens) (UniProt Q8IY84); conditions: Compound concentration 1000.0 nM
[13] = target: Tyrosine-protein kinase Mer (Homo sapiens) (UniProt Q12866); conditions: Compound concentration 1000.0 nM
[14] = test system: Phosphatidylinositol 4,5-bisphosphate 3-kinase catalytic subunit alpha isoform (Homo sapiens), P42336 [H1047Y]; conditions: Compound concentration 1000.0 nM
[15] = target: Phosphatidylinositol 4-phosphate 5-kinase type-1 alpha (Homo sapiens) (UniProt Q99755); conditions: Compound concentration 1000.0 nM
[16] = test system: Receptor-type tyrosine-protein kinase FLT3 (Homo sapiens), P36888 [K663Q]; conditions: Compound concentration 1000.0 nM
[17] = target: Serine/threonine-protein kinase LATS2 (Homo sapiens) (UniProt Q9NRM7); conditions: Compound concentration 1000.0 nM
[18] = target: Serine/threonine-protein kinase MARK1 (Homo sapiens) (UniProt Q9P0L2); conditions: Compound concentration 1000.0 nM
[19] = target: Proto-oncogene tyrosine-protein kinase receptor Ret (Homo sapiens) (UniProt P07949); conditions: Compound concentration 1000.0 nM
[20] = target: Receptor-interacting serine/threonine-protein kinase 2 (Homo sapiens) (UniProt O43353); conditions: Compound concentration 1000.0 nM
[21] = target: Ephrin type-A receptor 1 (Homo sapiens) (UniProt P21709); conditions: Compound concentration 1000.0 nM
[22] = target: NUAK family SNF1-like kinase 1 (Homo sapiens) (UniProt O60285); conditions: Compound concentration 1000.0 nM
[23] = target: Megakaryocyte-associated tyrosine-protein kinase (Homo sapiens) (UniProt P42679); conditions: Compound concentration 1000.0 nM
[24] = target: Mitogen-activated protein kinase 6 (Homo sapiens) (UniProt Q16659); conditions: Compound concentration 1000.0 nM
[25] = target: G protein-coupled receptor kinase 3 (Homo sapiens) (UniProt P35626); conditions: Compound concentration 1000.0 nM
[26] = target: Mitogen-activated protein kinase kinase kinase 10 (Homo sapiens) (UniProt Q02779); conditions: Compound concentration 1000.0 nM
[27] = target: Dual specificity protein kinase CLK3 (Homo sapiens) (UniProt P49761); conditions: Compound concentration 1000.0 nM
[28] = target: Insulin-like growth factor 1 receptor (Homo sapiens) (UniProt P08069); conditions: Compound concentration 1000.0 nM
[29] = target: MAP kinase-interacting serine/threonine-protein kinase 2 (Homo sapiens) (UniProt Q9HBH9); conditions: Compound concentration 1000.0 nM
[30] = target: Calcium/calmodulin-dependent protein kinase type II subunit alpha (Homo sapiens) (UniProt Q9UQM7); conditions: Compound concentration 1000.0 nM
[31] = target: Casein kinase I isoform alpha-like (Homo sapiens) (UniProt Q8N752); conditions: Compound concentration 1000.0 nM
[32] = target: MAP kinase-interacting serine/threonine-protein kinase 1 (Homo sapiens) (UniProt Q9BUB5); conditions: Compound concentration 1000.0 nM
[33] = target: Mitogen-activated protein kinase kinase kinase kinase 2 (Homo sapiens) (UniProt Q12851); conditions: Compound concentration 1000.0 nM
[34] = target: Cyclin-dependent kinase 19 (Homo sapiens) (UniProt Q9BWU1); conditions: Compound concentration 1000.0 nM
[35] = target: Serine/threonine-protein kinase 17B (Homo sapiens) (UniProt O94768); conditions: Compound concentration 1000.0 nM
[36] = target: Serine/threonine-protein kinase 38-like (Homo sapiens) (UniProt Q9Y2H1); conditions: Compound concentration 1000.0 nM
[37] = target: cGMP-dependent protein kinase 2 (Homo sapiens) (UniProt Q13237); conditions: Compound concentration 1000.0 nM
[38] = target: Proto-oncogene tyrosine-protein kinase Src (Homo sapiens) (UniProt P12931); conditions: Compound concentration 1000.0 nM
[39] = target: Serine/threonine-protein kinase PLK4 (Homo sapiens) (UniProt O00444); conditions: Compound concentration 1000.0 nM
[40] = target: Death-associated protein kinase 2 (Homo sapiens) (UniProt Q9UIK4); conditions: Compound concentration 1000.0 nM
[41] = target: Non-receptor tyrosine-protein kinase TNK1 (Homo sapiens) (UniProt Q13470); conditions: Compound concentration 1000.0 nM
[42] = target: Sodium-dependent noradrenaline transporter (Homo sapiens) (UniProt P23975); conditions: Compound concentration 10.0 uM
[43] = test system: Epidermal growth factor receptor (Homo sapiens), P00533 [L861Q]; conditions: Compound concentration 1000.0 nM
[44] = target: Tyrosine-protein kinase Yes (Homo sapiens) (UniProt P07947); conditions: Compound concentration 1000.0 nM
[45] = target: Rho-associated protein kinase 1 (Homo sapiens) (UniProt Q13464); conditions: Compound concentration 1000.0 nM

Tyrosine-protein kinase Mer (Homo sapiens), sequence (Q12866 whole entry, canonical isoform): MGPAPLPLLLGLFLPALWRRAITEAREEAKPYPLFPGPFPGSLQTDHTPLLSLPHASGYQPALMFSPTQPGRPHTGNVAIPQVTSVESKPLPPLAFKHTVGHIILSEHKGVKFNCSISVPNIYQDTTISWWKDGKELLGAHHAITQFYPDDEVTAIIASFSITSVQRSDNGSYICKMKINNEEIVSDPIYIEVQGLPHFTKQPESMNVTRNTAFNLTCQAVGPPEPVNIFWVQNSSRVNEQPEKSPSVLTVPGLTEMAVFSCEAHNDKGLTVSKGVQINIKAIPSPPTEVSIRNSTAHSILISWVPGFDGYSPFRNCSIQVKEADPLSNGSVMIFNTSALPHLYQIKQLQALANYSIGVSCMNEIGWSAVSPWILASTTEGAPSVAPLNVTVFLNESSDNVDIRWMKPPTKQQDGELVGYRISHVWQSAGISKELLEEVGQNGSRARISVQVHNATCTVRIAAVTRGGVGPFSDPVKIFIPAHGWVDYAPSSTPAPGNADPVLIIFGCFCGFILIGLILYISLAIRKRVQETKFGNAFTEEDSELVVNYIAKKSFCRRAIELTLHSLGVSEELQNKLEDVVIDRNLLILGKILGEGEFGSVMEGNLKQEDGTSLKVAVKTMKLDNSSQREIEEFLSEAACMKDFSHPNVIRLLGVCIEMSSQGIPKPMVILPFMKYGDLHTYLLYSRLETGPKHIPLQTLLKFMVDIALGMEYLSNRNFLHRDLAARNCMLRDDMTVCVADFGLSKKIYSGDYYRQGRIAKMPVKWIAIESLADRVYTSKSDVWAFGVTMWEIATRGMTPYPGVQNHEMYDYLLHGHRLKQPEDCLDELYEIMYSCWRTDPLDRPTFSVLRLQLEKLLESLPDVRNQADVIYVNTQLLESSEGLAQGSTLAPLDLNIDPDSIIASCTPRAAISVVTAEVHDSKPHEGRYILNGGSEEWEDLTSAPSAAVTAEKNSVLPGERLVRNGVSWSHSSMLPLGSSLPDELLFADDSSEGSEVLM
Calcium/calmodulin-dependent protein kinase type II subunit alpha (Homo sapiens), sequence (Q9UQM7 whole entry, canonical isoform): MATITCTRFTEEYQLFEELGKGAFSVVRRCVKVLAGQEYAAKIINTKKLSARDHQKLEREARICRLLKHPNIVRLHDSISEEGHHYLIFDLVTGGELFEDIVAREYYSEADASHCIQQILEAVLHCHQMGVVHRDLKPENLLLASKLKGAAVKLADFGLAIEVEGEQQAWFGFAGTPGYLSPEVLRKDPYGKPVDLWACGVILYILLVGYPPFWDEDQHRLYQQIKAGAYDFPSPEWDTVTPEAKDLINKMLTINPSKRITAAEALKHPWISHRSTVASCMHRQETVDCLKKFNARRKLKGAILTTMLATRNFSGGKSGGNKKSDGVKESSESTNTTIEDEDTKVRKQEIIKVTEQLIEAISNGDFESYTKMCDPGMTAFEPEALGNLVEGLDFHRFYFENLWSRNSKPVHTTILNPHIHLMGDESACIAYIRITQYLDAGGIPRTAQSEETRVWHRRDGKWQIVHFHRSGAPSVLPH
Serine/threonine-protein kinase NIM1 (Homo sapiens), sequence (Q8IY84 whole entry): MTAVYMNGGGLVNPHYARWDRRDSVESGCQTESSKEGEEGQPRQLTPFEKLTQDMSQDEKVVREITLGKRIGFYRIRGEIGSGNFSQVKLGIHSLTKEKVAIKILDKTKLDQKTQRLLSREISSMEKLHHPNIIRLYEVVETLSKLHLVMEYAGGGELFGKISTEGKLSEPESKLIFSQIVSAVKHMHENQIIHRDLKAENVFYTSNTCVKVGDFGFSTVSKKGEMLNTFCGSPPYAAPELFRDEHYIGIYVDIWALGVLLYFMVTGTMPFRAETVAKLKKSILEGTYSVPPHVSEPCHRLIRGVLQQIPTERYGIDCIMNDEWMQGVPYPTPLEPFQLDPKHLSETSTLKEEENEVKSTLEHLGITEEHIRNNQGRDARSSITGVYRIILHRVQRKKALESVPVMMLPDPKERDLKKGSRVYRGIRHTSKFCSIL
Dual specificity mitogen-activated protein kinase kinase 6 (Homo sapiens), sequence (P52564 whole entry): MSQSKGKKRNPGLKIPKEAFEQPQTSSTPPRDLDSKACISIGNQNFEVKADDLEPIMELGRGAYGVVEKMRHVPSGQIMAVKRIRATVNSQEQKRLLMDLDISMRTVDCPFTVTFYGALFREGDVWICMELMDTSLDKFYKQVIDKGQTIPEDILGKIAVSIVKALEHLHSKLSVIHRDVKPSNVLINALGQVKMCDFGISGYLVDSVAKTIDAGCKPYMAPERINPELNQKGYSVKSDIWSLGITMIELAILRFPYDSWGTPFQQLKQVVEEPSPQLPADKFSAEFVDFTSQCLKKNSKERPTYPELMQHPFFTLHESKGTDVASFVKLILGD
Tyrosine-protein kinase Yes (Homo sapiens), sequence (P07947 2-543 limits assumed): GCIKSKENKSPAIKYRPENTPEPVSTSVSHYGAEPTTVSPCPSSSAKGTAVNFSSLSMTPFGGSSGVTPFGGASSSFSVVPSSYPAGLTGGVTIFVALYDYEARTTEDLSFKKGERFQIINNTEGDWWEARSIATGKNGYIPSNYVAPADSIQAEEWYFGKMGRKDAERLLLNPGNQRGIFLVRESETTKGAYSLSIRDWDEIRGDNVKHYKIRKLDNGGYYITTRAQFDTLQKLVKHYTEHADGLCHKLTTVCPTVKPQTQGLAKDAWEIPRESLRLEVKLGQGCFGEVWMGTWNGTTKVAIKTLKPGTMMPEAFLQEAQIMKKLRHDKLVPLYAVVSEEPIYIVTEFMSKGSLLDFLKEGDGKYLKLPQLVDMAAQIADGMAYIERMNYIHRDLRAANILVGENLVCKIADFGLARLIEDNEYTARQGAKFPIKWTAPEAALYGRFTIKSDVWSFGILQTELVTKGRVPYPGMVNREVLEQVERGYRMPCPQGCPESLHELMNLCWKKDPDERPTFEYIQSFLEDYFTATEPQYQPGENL
Histamine H1 receptor (Homo sapiens), sequence (P35367 whole entry): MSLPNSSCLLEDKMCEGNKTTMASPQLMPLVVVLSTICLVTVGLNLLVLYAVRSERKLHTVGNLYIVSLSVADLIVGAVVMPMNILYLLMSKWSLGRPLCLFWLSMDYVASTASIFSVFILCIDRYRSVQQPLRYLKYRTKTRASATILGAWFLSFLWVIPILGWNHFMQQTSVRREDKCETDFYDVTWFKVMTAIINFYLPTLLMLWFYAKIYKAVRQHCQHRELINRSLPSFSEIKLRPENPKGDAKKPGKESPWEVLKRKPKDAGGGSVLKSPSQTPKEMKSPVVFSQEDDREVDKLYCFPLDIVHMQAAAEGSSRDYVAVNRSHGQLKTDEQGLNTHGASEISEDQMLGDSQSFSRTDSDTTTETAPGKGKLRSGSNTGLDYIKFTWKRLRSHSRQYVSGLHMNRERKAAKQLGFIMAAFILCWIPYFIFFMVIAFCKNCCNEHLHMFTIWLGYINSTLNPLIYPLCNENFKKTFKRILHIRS
Proto-oncogene tyrosine-protein kinase receptor Ret (Homo sapiens), sequence (P07949 whole entry): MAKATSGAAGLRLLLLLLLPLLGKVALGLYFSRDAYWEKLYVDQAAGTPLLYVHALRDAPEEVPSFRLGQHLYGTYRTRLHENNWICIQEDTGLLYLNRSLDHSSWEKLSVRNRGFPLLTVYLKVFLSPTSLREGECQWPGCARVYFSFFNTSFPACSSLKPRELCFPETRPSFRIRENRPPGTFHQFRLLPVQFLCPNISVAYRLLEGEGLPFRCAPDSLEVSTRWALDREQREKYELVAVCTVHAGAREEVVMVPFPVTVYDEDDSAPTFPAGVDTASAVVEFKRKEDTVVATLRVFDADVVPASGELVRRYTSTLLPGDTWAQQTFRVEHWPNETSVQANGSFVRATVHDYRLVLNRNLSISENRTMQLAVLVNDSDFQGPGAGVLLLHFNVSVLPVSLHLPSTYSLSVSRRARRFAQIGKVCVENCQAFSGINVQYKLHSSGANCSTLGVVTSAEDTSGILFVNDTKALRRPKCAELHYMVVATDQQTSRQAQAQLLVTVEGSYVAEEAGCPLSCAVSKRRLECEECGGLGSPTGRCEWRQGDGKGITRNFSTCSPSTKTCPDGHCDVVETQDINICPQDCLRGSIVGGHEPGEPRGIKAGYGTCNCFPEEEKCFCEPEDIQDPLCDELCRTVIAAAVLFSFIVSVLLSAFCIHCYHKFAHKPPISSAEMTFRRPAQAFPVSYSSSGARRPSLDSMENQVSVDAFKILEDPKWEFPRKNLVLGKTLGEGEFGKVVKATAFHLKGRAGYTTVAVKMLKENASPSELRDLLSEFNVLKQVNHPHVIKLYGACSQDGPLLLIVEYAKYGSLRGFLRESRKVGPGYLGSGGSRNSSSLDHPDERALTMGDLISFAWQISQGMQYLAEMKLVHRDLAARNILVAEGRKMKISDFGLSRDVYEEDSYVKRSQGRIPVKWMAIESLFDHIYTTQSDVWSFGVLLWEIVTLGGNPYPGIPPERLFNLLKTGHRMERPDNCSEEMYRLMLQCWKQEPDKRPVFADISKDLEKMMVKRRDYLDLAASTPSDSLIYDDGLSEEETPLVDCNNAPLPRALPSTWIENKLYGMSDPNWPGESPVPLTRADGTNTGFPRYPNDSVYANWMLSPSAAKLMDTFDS
Megakaryocyte-associated tyrosine-protein kinase (Homo sapiens), sequence (P42679 whole entry): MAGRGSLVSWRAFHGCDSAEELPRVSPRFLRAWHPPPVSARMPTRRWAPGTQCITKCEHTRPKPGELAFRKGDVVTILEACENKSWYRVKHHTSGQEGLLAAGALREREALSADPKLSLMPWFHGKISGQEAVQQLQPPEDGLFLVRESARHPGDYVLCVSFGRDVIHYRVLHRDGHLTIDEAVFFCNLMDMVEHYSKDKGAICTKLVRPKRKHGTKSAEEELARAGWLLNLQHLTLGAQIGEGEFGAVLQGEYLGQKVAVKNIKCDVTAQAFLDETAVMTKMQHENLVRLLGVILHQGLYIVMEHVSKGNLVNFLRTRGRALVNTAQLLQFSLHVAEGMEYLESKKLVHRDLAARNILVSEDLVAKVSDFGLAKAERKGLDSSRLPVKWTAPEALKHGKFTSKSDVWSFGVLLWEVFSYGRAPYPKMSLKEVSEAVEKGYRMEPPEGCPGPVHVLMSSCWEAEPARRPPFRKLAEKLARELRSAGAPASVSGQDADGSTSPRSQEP

SMILES: NS(=O)(=O)c1cc(NC(=O)Cc2ccccc2)ccc1Oc1cccc(Cl)c1 [BAY-1797]
- residual activity [1]: 68%
- residual activity [2]: 98%
- residual activity [3]: 92%
- residual activity [4]: 100%
- residual activity [5]: 75%
- residual activity [6]: 76%
- residual activity [7]: 51%
- inhibition [8]: 15.7%
- residual activity [9]: 99%
- residual activity [10]: 100%
- residual activity [11]: 78%
- residual activity [12]: 62%
- residual activity [13]: 82%
- residual activity [14]: 81%
- residual activity [15]: 100%
- residual activity [16]: 99%
- residual activity [17]: 94%
- residual activity [18]: 100%
- residual activity [19]: 100%
- residual activity [20]: 94%
- residual activity [21]: 100%
- residual activity [22]: 100%
- residual activity [23]: 68%
- residual activity [24]: 98%
- residual activity [25]: 100%
- residual activity [26]: 98%
- residual activity [27]: 83%
- residual activity [28]: 100%
- residual activity [29]: 86%
- residual activity [30]: 96%
- residual activity [31]: 74%
- residual activity [32]: 79%
- residual activity [33]: 84%
- residual activity [34]: 91%
- residual activity [35]: 100%
- residual activity [36]: 100%
- residual activity [37]: 86%
- residual activity [38]: 90%
- residual activity [39]: 92%
- residual activity [40]: 90%
- residual activity [41]: 74%
- inhibition [42]: 0.53%
- residual activity [43]: 64%
- residual activity [44]: 86%
- residual activity [45]: 88%

SMILES: NS(=O)(=O)c1cc(NC(=O)C2(c3ccccc3Cl)CC2)ccc1Oc1cccc(Cl)c1 [BAY-207]
- residual activity [1]: 62%
- residual activity [2]: 47%
- residual activity [3]: 90%
- residual activity [4]: 100%
- residual activity [5]: 100%
- residual activity [6]: 90%
- residual activity [7]: 96%
- inhibition [8]: 17.9%
- residual activity [9]: 96%
- residual activity [10]: 61%
- residual activity [11]: 78%
- residual activity [12]: 86%
- residual activity [13]: 70%
- residual activity [14]: 76%
- residual activity [15]: 100%
- residual activity [16]: 100%
- residual activity [17]: 68%
- residual activity [18]: 83%
- residual activity [19]: 84%
- residual activity [20]: 93%
- residual activity [21]: 100%
- residual activity [22]: 95%
- residual activity [23]: 100%
- residual activity [24]: 100%
- residual activity [25]: 100%
- residual activity [26]: 100%
- residual activity [27]: 72%
- residual activity [28]: 80%
- residual activity [29]: 100%
- residual activity [30]: 97%
- residual activity [31]: 84%
- residual activity [32]: 99%
- residual activity [33]: 100%
- residual activity [34]: 85%
- residual activity [35]: 97%
- residual activity [36]: 81%
- residual activity [37]: 100%
- residual activity [38]: 88%
- residual activity [39]: 87%
- residual activity [40]: 100%
- residual activity [41]: 100%
- inhibition [42]: 22.4%
- residual activity [43]: 76%
- residual activity [44]: 90%
- residual activity [45]: 100%
